# Data as given in PMC11840258, “Detection of chimeric alpha-defensin transcripts and peptides in mouse Paneth cells” (Frontiers in Immunology, 2025).
# No end group written: not given here.
# What was measured:
# Format in all cases: cell-based
# [1] = test system: Citrobacter rodentium strain ICC 169; test: Anti-bacterial activity assay (colony counts after peptide titration); conditions: 1U = dose needed to kill 50% of the bacteria (IC50), peptide 20, 10, 4, 2 µg/ml, 4 h at 37°C, colonies counted on LB agar, logistic 4 parameter model (drda), means of two independent experiments
# Protocol: (§1) Antimicrobial essays for the synthetic proteins were performed against Escherichia coli, Staphylococcus nepalensis, Enterococcus fecalis and Citrobacter rodentium. The first three species are common in small intestine in mice (where Paneth cells are relevant), while C. rodentium is a common pathogen in mice. To obtain cultures of the first three species, C57BL/6J mice were euthanized, ileum content harvested and diluted in sterile PBS and plated out on standard LB plates, overnight. Colonies were picked and species identified using Maldi-Toff [as previously described ([19])]. The relevant pure colonies of these three species were then grown on plates, identified once again, and grown in liquid LB and frozen at -80°C. The C. rodentium culture was strain ICC 169 and was obtained from ATCC.
# (§2) Bacteria were grown in LB broth at 37°C in an incubation shaker (100rpm) until and OD between 0.8-1. For each peptide, a dilution set (800 µl/peptide) derived from the stock solution was prepared in such manner to obtain a final volume of 1 ml with peptide concentrations of 20 µg/ml, 10 µg/ml, 4 µg/ml and 2 µg/ml. Bacteria grown in LB broth where diluted to OD 0.2. For each bacterium, 200 µl of the OD 0.2 solution was added to each of the peptide dilutions and incubated at 37°C for four hours at 55 rpm. After incubation 100 µl of the incubated mixture was plated out on LB agar plates at two concentrations: undiluted and 1:10 diluted. The plates were incubated at 37°C overnight after which colonies per plate were counted and tabulated. The highest plated out concentration that still had individually distinguishable colonies was used.
# (§3) The R package “drda” ([20]) was used to perform a dose-response analysis using the logistic 4 parameter model. The concentration that inhibits growth by 50%, IC50, was obtained from the models for each combination of bacterium and peptide and converted into per peptide specific activity.
# Enterococcus fecalis = test: as above; conditions: 1U = dose needed to kill 50% of the bacteria (IC50); peptide 20, 10, 4, 2 µg/ml; 4 h at 37°C; colonies counted on LB agar; logistic 4 parameter model (drda); isolate from mouse ileum; means of two independent experiments
# Protocol: as §1, §2, §3
# Escherichia coli = test: as above; conditions: 1U = dose needed to kill 50% of the bacteria (IC50); peptide 20, 10, 4, 2 µg/ml; 4 h at 37°C; colonies counted on LB agar; logistic 4 parameter model (drda); isolate from mouse ileum; means of two independent experiments
# Protocol: as §1, §2, §3
# [2] = test system: Staphylococcus nepalensis; test: as above; conditions: 1U = dose needed to kill 50% of the bacteria (IC50); peptide 20, 10, 4, 2 µg/ml; 4 h at 37°C; colonies counted on LB agar; logistic 4 parameter model (drda); isolate from mouse ileum; means of two independent experiments
# Protocol: as §1, §2, §3
# [3] = test system: E. coli, C. rodentium, S. nepalensis, E. fecalis; test: Anti-bacterial activity assay, over the four bacterial species; conditions: 1U = dose needed to kill 50% of the bacteria (IC50)
# Protocol: as §1
# as §2, with “After incubation 100 µl of the incubated mixture was plated out on LB agar plates at two concentrations: undiluted and 1:10 diluted.” left out, “The highest plated out concentration that still had individually distinguishable colonies was used.” left out
Substance,"Specific activity of cell killing, C. rodentium [1]","Specific activity of cell killing, E. fecalis (Enterococcus fecalis)","Specific activity of cell killing, E. coli (Escherichia coli)","Specific activity of cell killing, S. nepalensis [2]","Specific activity of cell killing, Mean [3]"
"Defa24: custom-synthesized mature peptide of parental mouse α-defensin Defa24 (LRDLVCYCRARGCKGRERMNGTCSKGHLLYMLCC; ends and bridges not checked; cysteine pairing not given here; UniProt Q5G865 59-92, looked up)",77 U/mg,23 U/mg,122 U/mg,8 U/mg,58 U/mg
"Defa31: custom-synthesized mature peptide of parental mouse α-defensin Defa31 (PRCPPCPRCSWCPRCPTCPRCNCNPK; ends and bridges not checked; cysteine pairing not given here; UniProt P50715 66-91, looked up)",314 U/mg,189 U/mg,397 U/mg,437 U/mg,334 U/mg
